Here are results for one substance from patent US11999987B2, “Bacterial cocultures expressing a bacteriocin system” (Lallemand Hungary Liquidity Management LLC, priority 2020, dated 2024).

Assay [1] deals with Lb. paracasei E3.1 harboring the empty vector. Put plainly: Growth of Lb. paracasei E3.1 (empty vector) in MRS with nisin, OD600. It is filed as cell-based, Lactobacillus paracasei. The settings on record: MRS supplemented with 500 ppm of nisin; empty vector strain; FIG. 1. How it is done: (§1) Resulting Lb. paracasei strains (±the nisin resistance construct) were grown in MRS (no nisin) and MRS supplemented with 500 ppm of nisin. The OD600 was monitored. When nisin was absent from the media both strains grew identically, indicating no deleterious effect of NisIEFG expression (FIG. 1).

Assay [2] deals with Lb. paracasei E3.1 expressing pDW2-P5-nisIEFG. Put plainly: Growth of Lb. paracasei E3.1 expressing the nisin autoimmunity construct in MRS with nisin, OD600. To be noted: MRS supplemented with 500 ppm of nisin; strain expressing pDW2-P5-nisIEFG; FIG. 1. Type of assay: cell-based, Lactobacillus paracasei. The procedure:
as §1

In the case of nisin, in assay [1], the “growth (OD600) in the presence of nisin” value is listed as “completely inhibited”. In assay [2], the “growth rate (OD600) in the presence of nisin” value was “only a minimal decrease in growth rate”.
